{"source": "PubChem BioAssay AID2060361", "about": "(Molecular Pharmacology Branch, DTP, NCI, 2025);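 also: spheroids exposed to drugs for seven days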;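 as to viability, T/C: 100% = DMSO vehicle control wells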", "test_system": "463943-066-T-J2-PDC tumor spheroids with HUVEC/MSC, viability", "assay": "Anticancer human tumor 463943-066-T-J2-PDC patient-derived colon adenocarcinoma cell line growth inhibition [TAK]", "details": "for IC50: curve of first compound; for viability, T/C: stronger effect = lower value", "from_the_text": "Combinatorial screen of targeted agents with TAK-243 and ipatasertib in multi-cell type tumor spheroids\nA high-throughput screen of multi-cell type tumor spheroids was designed to identify active combinations of targeted small molecules and TAK-243 or ipatasertib. Complex spheroids include a stromal component modeled by human endothelial cells (HUVEC) and fibroblasts modeled by human mesenchymal stem cells (MSCs). The concentration ranges selected for each drug and investigational agent were based upon clinically achievable concentrations if the clinical Cmax of the agent was known.\nCompounds. The drugs and investigational agents: TAK-243 (785004), ipatasertib (767898), everolimus (733504), selumetinib (741078), bortezomib (756655), trametinib (758246), ixazomib (758254), vemurafenib (761431), dabrafenib (764134), sapanisertib (764658), alpelisib (765974), and copanlisib (816437), were obtained from the National Cancer Institute (NCI) Developmental Therapeutics Program Chemical Repository. The FDA-approved anticancer drug set is available from the NCI Developmental Therapeutics Program. […] The stock solutions were prepared in dimethyl sulfoxide (DMSO, Sigma-Aldrich, St. Louis, MO, cat. D2650) at 800-fold the tested concentration and stored at -70 degrees C prior to their use. All drugs and investigational agents were tested over a range starting from a high concentration at or near the clinical Cmax and decreasing in half-log increments. If the clinical Cmax for an agent had not been determined, the highest concentration tested was 10 microM.\nNCI60 Cell Culture. NCI60 cell lines were obtained from the NCI Developmental Therapeutics Program Tumor Repository. For each lot of cells, the Repository performed Applied Biosystems AmpFLSTR Identifiler testing with PCR amplification to confirm consistency with the published Identifier STR profile for each cell line. Cells were kept in continuous culture for no more than 20 passages. The optimal seeding densities for each of the cell lines at each time point assessed were determined prior to performing the concentration response studies. Briefly, the NCI60 human tumor lines were grown as monolayers in RPMI 1640 medium supplemented with 10% FBS and 2 mmol/L L-glutamine.\nAn additional 2 lines were from the NCI60 cell line panel including melanomas, MALME-3M and SK-MEL-2. Pooled donor human umbilical vein endothelial cells (HUVEC, Lonza, cat. CC-2519) and human mesenchymal stem cells (hMSC, Lonza, cat. PT-2501) were purchased from Lonza (Walkersville, MD).\nPDMR cell lines were grown in complete medium (DC medium): Dulbecco's modified Eagle's medium (DMEM)/F12 supplemented with 5% fetal bovine serum (FBS), 2 mM L-glutamine, 100 U/mL penicillin and 100 µg/ml streptomycin, 0.4 µg/ml hydrocortisone, 10 ng/ml epidermal growth factor (EGF) recombinant human protein, 24 µg/mL adenine, and 0.1 mg/mL primocin. During culture from frozen stock vials, PDMR cells were cultured in the same medium containing 10 µM Y-27632 (see Table 3). The PDCs were cultured in complete DMEM/F12 media without 10 microM Y-27632 dihydrochloride for at least two passages prior to the screen. The pooled donor HUVEC and hMSC were cultured in endothelial cell growth medium 2 (PromoCell, Heidelberg, Germany, cat. C-22011) and mesenchymal stem cell growth medium 2 (PromoCell, cat. C-28009), respectively. For all experiments, HUVEC and hMSC were used at passages </=5.\nFor the pre-screen, cell seeding densities were determined from a titration spanning the range from 5,000 to 313 cells per well. The mct-spheroids including 60% malignant cells, 25% HUVEC and 15% MSC dispensed as a mixture into U-bottom Ultra-Low Attachment 384-well plates (Corning, NY)\nHigh-throughput Drug Combination Screening.\nPrior to their inoculation into 384-well plates, malignant cells, HUVEC, and hMSC were removed from T flasks using TrypLE express (Thermo Fisher Scientific, cat. 12605036) and harvested by centrifugation for 5 min at 233 x g. […]", "key": {"[1]": {"details": "second compound 0.3 µM, first compound 0.0316 µM"}, "[2]": {"details": "second compound 0.3 µM, first compound 0.1 µM"}, "[3]": {"details": "second compound 0.949 µM, first compound 0.0316 µM"}, "[4]": {"details": "second compound 0.949 µM, first compound 0.1 µM"}, "[5]": {"details": "second compound 3 µM, first compound 0.0316 µM"}, "[6]": {"details": "second compound 3 µM, first compound 0.1 µM"}, "[7]": {"details": "second compound 9.49 µM, first compound 0.0316 µM"}, "[8]": {"details": "second compound 9.49 µM, first compound 0.1 µM"}, "[9]": {"details": "second compound 30 µM, first compound 0.0316 µM"}, "[10]": {"details": "second compound 30 µM, first compound 0.1 µM"}}}
{"smiles": "CC(C)(C)c1nc(-c2cccc(NS(=O)(=O)c3c(F)cccc3F)c2F)c(-c2ccnc(N)n2)s1", "note": "+ CC(C)NCC(C(=O)N1CCN(c2ncnc3c2C(C)CC3O)CC1)c1ccc(Cl)cc1", "values": [{"measurement": "IC50", "setting": "second compound 0.3 µM", "result": "> 10", "unit": "µM"}, {"measurement": "IC50", "setting": "second compound 0.949 µM", "result": "> 10", "unit": "µM"}, {"measurement": "IC50", "setting": "second compound 3 µM", "result": "> 10", "unit": "µM"}, {"measurement": "IC50", "setting": "second compound 9.49 µM", "result": "> 10", "unit": "µM"}, {"measurement": "IC50", "setting": "second compound 30 µM", "result": "> 10", "unit": "µM"}, {"measurement": "viability, T/C", "setting": "[1]", "result": 110, "unit": "%"}, {"measurement": "viability, T/C", "setting": "[2]", "result": 111, "unit": "%"}, {"measurement": "viability, T/C", "setting": "second compound 0.3 µM, first compound 0.316 µM", "result": 107, "unit": "%"}, {"measurement": "viability, T/C", "setting": "second compound 0.3 µM, first compound 1 µM", "result": 112, "unit": "%"}, {"measurement": "viability, T/C", "setting": "second compound 0.3 µM, first compound 3.16 µM", "result": 100, "unit": "%"}, {"measurement": "viability, T/C", "setting": "second compound 0.3 µM, first compound 10 µM", "result": 92.5, "unit": "%"}, {"measurement": "viability, T/C", "setting": "[3]", "result": 115, "unit": "%"}, {"measurement": "viability, T/C", "setting": "[4]", "result": 111, "unit": "%"}, {"measurement": "viability, T/C", "setting": "second compound 0.949 µM, first compound 0.316 µM", "result": 105, "unit": "%"}, {"measurement": "viability, T/C", "setting": "second compound 0.949 µM, first compound 1 µM", "result": 111, "unit": "%"}, {"measurement": "viability, T/C", "setting": "second compound 0.949 µM, first compound 3.16 µM", "result": 103, "unit": "%"}, {"measurement": "viability, T/C", "setting": "second compound 0.949 µM, first compound 10 µM", "result": 88.3, "unit": "%"}, {"measurement": "viability, T/C", "setting": "[5]", "result": 99, "unit": "%"}, {"measurement": "viability, T/C", "setting": "[6]", "result": 109, "unit": "%"}, {"measurement": "viability, T/C", "setting": "second compound 3 µM, first compound 0.316 µM", "result": 92.2, "unit": "%"}, {"measurement": "viability, T/C", "setting": "second compound 3 µM, first compound 1 µM", "result": 102, "unit": "%"}, {"measurement": "viability, T/C", "setting": "second compound 3 µM, first compound 3.16 µM", "result": 110, "unit": "%"}, {"measurement": "viability, T/C", "setting": "second compound 3 µM, first compound 10 µM", "result": 101, "unit": "%"}, {"measurement": "viability, T/C", "setting": "[7]", "result": 100, "unit": "%"}, {"measurement": "viability, T/C", "setting": "[8]", "result": 111, "unit": "%"}, {"measurement": "viability, T/C", "setting": "second compound 9.49 µM, first compound 0.316 µM", "result": 99.2, "unit": "%"}, {"measurement": "viability, T/C", "setting": "second compound 9.49 µM, first compound 1 µM", "result": 109, "unit": "%"}, {"measurement": "viability, T/C", "setting": "second compound 9.49 µM, first compound 3.16 µM", "result": 107, "unit": "%"}, {"measurement": "viability, T/C", "setting": "second compound 9.49 µM, first compound 10 µM", "result": 104, "unit": "%"}, {"measurement": "viability, T/C", "setting": "[9]", "result": 91, "unit": "%"}, {"measurement": "viability, T/C", "setting": "[10]", "result": 98.6, "unit": "%"}, {"measurement": "viability, T/C", "setting": "second compound 30 µM, first compound 0.316 µM", "result": 100, "unit": "%"}, {"measurement": "viability, T/C", "setting": "second compound 30 µM, first compound 1 µM", "result": 97.2, "unit": "%"}, {"measurement": "viability, T/C", "setting": "second compound 30 µM, first compound 3.16 µM", "result": 104, "unit": "%"}, {"measurement": "viability, T/C", "setting": "second compound 30 µM, first compound 10 µM", "result": 91.1, "unit": "%"}]}
{"smiles": "CC(C)CC(NC(=O)CNC(=O)c1cc(Cl)ccc1Cl)B1OC(=O)CC(CC(=O)O)(C(=O)O)O1", "note": "(stereo not given) + CC(C)NCC(C(=O)N1CCN(c2ncnc3c2C(C)CC3O)CC1)c1ccc(Cl)cc1", "values": [{"measurement": "IC50", "setting": "second compound 0.3 µM", "result": "> 0.1", "unit": "µM"}, {"measurement": "IC50", "setting": "second compound 0.949 µM", "result": "> 0.1", "unit": "µM"}, {"measurement": "IC50", "setting": "second compound 3 µM", "result": "> 0.1", "unit": "µM"}, {"measurement": "IC50", "setting": "second compound 9.49 µM", "result": "> 0.1", "unit": "µM"}, {"measurement": "IC50", "setting": "second compound 30 µM", "result": "> 0.1", "unit": "µM"}, {"measurement": "viability, T/C", "setting": "second compound 0.3 µM, first compound 0.000316 µM", "result": 117, "unit": "%"}, {"measurement": "viability, T/C", "setting": "second compound 0.3 µM, first compound 0.001 µM", "result": 107, "unit": "%"}, {"measurement": "viability, T/C", "setting": "second compound 0.3 µM, first compound 0.00316 µM", "result": 106, "unit": "%"}, {"measurement": "viability, T/C", "setting": "second compound 0.3 µM, first compound 0.01 µM", "result": 101, "unit": "%"}, {"measurement": "viability, T/C", "setting": "[1]", "result": 88.8, "unit": "%"}, {"measurement": "viability, T/C", "setting": "[2]", "result": 80.5, "unit": "%"}, {"measurement": "viability, T/C", "setting": "second compound 0.949 µM, first compound 0.000316 µM", "result": 98.3, "unit": "%"}, {"measurement": "viability, T/C", "setting": "second compound 0.949 µM, first compound 0.001 µM", "result": 102, "unit": "%"}, {"measurement": "viability, T/C", "setting": "second compound 0.949 µM, first compound 0.00316 µM", "result": 99, "unit": "%"}, {"measurement": "viability, T/C", "setting": "second compound 0.949 µM, first compound 0.01 µM", "result": 105, "unit": "%"}, {"measurement": "viability, T/C", "setting": "[3]", "result": 86.9, "unit": "%"}, {"measurement": "viability, T/C", "setting": "[4]", "result": 72.6, "unit": "%"}, {"measurement": "viability, T/C", "setting": "second compound 3 µM, first compound 0.000316 µM", "result": 116, "unit": "%"}, {"measurement": "viability, T/C", "setting": "second compound 3 µM, first compound 0.001 µM", "result": 98.9, "unit": "%"}, {"measurement": "viability, T/C", "setting": "second compound 3 µM, first compound 0.00316 µM", "result": 95.4, "unit": "%"}, {"measurement": "viability, T/C", "setting": "second compound 3 µM, first compound 0.01 µM", "result": 98.5, "unit": "%"}, {"measurement": "viability, T/C", "setting": "[5]", "result": 83.5, "unit": "%"}, {"measurement": "viability, T/C", "setting": "[6]", "result": 80.7, "unit": "%"}, {"measurement": "viability, T/C", "setting": "second compound 9.49 µM, first compound 0.000316 µM", "result": 91.4, "unit": "%"}, {"measurement": "viability, T/C", "setting": "second compound 9.49 µM, first compound 0.001 µM", "result": 123, "unit": "%"}, {"measurement": "viability, T/C", "setting": "second compound 9.49 µM, first compound 0.00316 µM", "result": 97.2, "unit": "%"}, {"measurement": "viability, T/C", "setting": "second compound 9.49 µM, first compound 0.01 µM", "result": 95.2, "unit": "%"}, {"measurement": "viability, T/C", "setting": "[7]", "result": 78.1, "unit": "%"}, {"measurement": "viability, T/C", "setting": "[8]", "result": 85.7, "unit": "%"}, {"measurement": "viability, T/C", "setting": "second compound 30 µM, first compound 0.000316 µM", "result": 93.8, "unit": "%"}, {"measurement": "viability, T/C", "setting": "second compound 30 µM, first compound 0.001 µM", "result": 99.1, "unit": "%"}, {"measurement": "viability, T/C", "setting": "second compound 30 µM, first compound 0.00316 µM", "result": 90.6, "unit": "%"}, {"measurement": "viability, T/C", "setting": "second compound 30 µM, first compound 0.01 µM", "result": 90.4, "unit": "%"}, {"measurement": "viability, T/C", "setting": "[9]", "result": 81.3, "unit": "%"}, {"measurement": "viability, T/C", "setting": "[10]", "result": 71.7, "unit": "%"}]}
